Some test systems named below: SF-295; MDA-MB-435; NCI-H460; DU-145; HL-60; LOX IMVI; SF-539; OVCAR-5; MDA-MB-231; SK-OV-3; M14; 786-0; SW-620; HT-29; HOP-92; NCI-H522; BT-549; NCI-H226; RXF 393; A498.
What all share (experiment): NCI tumour cell line growth inhibition, 48 h

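All cell lines were grown in 96-well plates and treated with compound for 48 hours. GI50 = concentration required for 50% inhibition of growth.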 Activity calls are given as the source filed them. No stated cut-off is given here; in the data, active = GI50 up to about 1.1 µM and inactive = higher.

For the molecule `CCOc1ncn(-c2ccc(NC(=S)NC34CC5CC(CC(C5)C3)C4)cc2)n1`, the GI50 is 48.4 µM (inactive) in the assay on SF-295; > 100 µM (inactive) in the assay with MDA-MB-435; 53.5 µM (inactive) in the assay with NCI-H460; > 100 µM (inactive) in the assay with DU-145; > 100 µM (inactive) in the assay on HL-60; > 100 µM (inactive) in the assay with LOX IMVI. In addition, the GI50 in the assay with SF-539 is > 100 µM (inactive); in the assay on OVCAR-5, > 100 µM (inactive); with MDA-MB-231, 76.4 µM (inactive); with SK-OV-3, 33.2 µM (inactive); in the assay on M14 it was 61.9 µM (inactive); in the assay with 786-0 it was 13.2 µM (inactive). In addition, the GI50 in the assay with SW-620 is > 100 µM (inactive); with HT-29, 80.5 µM (inactive); with HOP-92, 25 µM (inactive); in the assay with NCI-H522, 99.1 µM (inactive); in the assay with BT-549 it was > 100 µM (inactive).

As to `CCCCCCCC(CC(=O)NC(CO)C(=O)NC(CO)CC(C)C)OC(=O)CC(CCCCCCC)OC(=O)CC(CCCCCCC)OC1OC(C)C(O)C(OC2OC(C)C(O)C(OC(C)=O)C2O)C1O` (stereo unspecified), the GI50 in the assay on NCI-H226 was 17.4 µM (inactive); in the assay on SF-295, 15.8 µM (inactive); in the assay with MDA-MB-435, 11 µM (inactive); in the assay with NCI-H460, 13.3 µM (inactive); in the assay with DU-145, 10.4 µM (inactive); with HL-60, 5.69 µM (inactive). The GI50 in the assay on SF-539 was 12.1 µM (inactive); with OVCAR-5 it was 11.7 µM (inactive); in the assay on MDA-MB-231, 11.3 µM (inactive); in the assay with SK-OV-3, 17 µM (inactive); in the assay with M14, 10.7 µM (inactive); in the assay on 786-0, 13.4 µM (inactive). In addition, the GI50 is 14.9 µM (inactive) in the assay with SW-620; 7.8 µM (inactive) in the assay with HT-29; 10.9 µM (inactive) with HOP-92; 8.34 µM (inactive) in the assay with RXF 393; 15 µM (inactive) in the assay on NCI-H522; 6.47 µM (inactive) with BT-549. The GI50 with A498 is 13.2 µM (inactive).

In the case of `O=C(N[C@@H](c1ccccc1)[C@@H](O)C(=O)OCc1ccc([N+](=O)[O-])cc1)c1ccccc1`, the GI50 in the assay with NCI-H226 was > 100 µM (inactive); with SF-295, > 10 µM (inactive); in the assay on MDA-MB-435, > 100 µM (inactive); in the assay with NCI-H460, > 100 µM (inactive); in the assay on DU-145, > 100 µM (inactive); in the assay with LOX IMVI it was > 100 µM (inactive). For the same molecule, the GI50 in the assay on SF-539, in the assay with OVCAR-5, in the assay with MDA-MB-231, in the assay on SK-OV-3, with 786-0 and in the assay with SW-620 was > 100 µM (inactive) throughout. The GI50 in the assay on HT-29, with HOP-92, in the assay with RXF 393, with NCI-H522, in the assay on BT-549 and in the assay with A498 was > 100 µM (inactive) in each case.

`CC(/C=N\NC(=S)N(C)C)=N/NC(=S)N(C)C`: the GI50 was 0.843 µM (active) with NCI-H226; 0.147 µM (active) in the assay with SF-295; 0.881 µM (active) with MDA-MB-435; 0.0412 µM (active) in the assay with NCI-H460; 0.195 µM (active) in the assay with DU-145; 0.273 µM (active) in the assay with LOX IMVI. In addition, the GI50 is 0.74 µM (active) in the assay on SF-539; 10.9 µM (inactive) in the assay on OVCAR-5; 29 µM (inactive) in the assay with MDA-MB-231; 0.484 µM (active) in the assay on SK-OV-3; 0.393 µM (active) in the assay on M14; 0.509 µM (active) with 786-0. For the same molecule, the GI50 in the assay on SW-620 was 0.0832 µM (active); in the assay on HT-29, 0.0995 µM (active); in the assay with HOP-92, 1.84 µM (inactive); in the assay on RXF 393 it was 0.586 µM (active); with NCI-H522, 0.243 µM (active); with BT-549, 1.93 µM (inactive). For the same molecule, the GI50 with A498 is 2.88 µM (inactive).

`O=C(O)CCCN/C(=C1\C(=O)C(=O)N(c2ccccc2)C1=O)c1ccccc1`: the GI50 with NCI-H226, in the assay on SF-295, with MDA-MB-435, with NCI-H460, with DU-145 and with HL-60 was > 100 µM (inactive) throughout. Besides, the GI50 in the assay with LOX IMVI was > 100 µM (inactive); in the assay with SF-539 it was 82 µM (inactive); in the assay with OVCAR-5, > 100 µM (inactive); with MDA-MB-231, > 100 µM (inactive); in the assay on SK-OV-3 it was > 100 µM (inactive); in the assay with M14 it was > 100 µM (inactive). For the same molecule, the GI50 in the assay with 786-0, in the assay with SW-620, in the assay on HT-29, in the assay with HOP-92, with RXF 393 and in the assay with NCI-H522 was > 100 µM (inactive) throughout. Moreover, the GI50 in the assay with BT-549 is > 100 µM (inactive).

On to `NC(=O)c1cc2ccccc2o/c1=N/O`, for which the GI50 with NCI-H226 was > 100 µM (inactive); with SF-295, > 100 µM (inactive); in the assay on MDA-MB-435, 54.1 µM (inactive); in the assay with NCI-H460, > 100 µM (inactive); with DU-145 it was > 100 µM (inactive); in the assay with HL-60, 75.2 µM (inactive). Moreover, the GI50 in the assay on LOX IMVI, in the assay on SF-539, with MDA-MB-231, in the assay on SK-OV-3, in the assay with M14 and with 786-0 was > 100 µM (inactive) throughout. Also, the GI50 in the assay on SW-620 is > 100 µM (inactive); with HT-29, > 100 µM (inactive); in the assay with HOP-92, > 100 µM (inactive); with RXF 393, > 100 µM (inactive); in the assay with NCI-H522, 61.4 µM (inactive); in the assay with BT-549, > 100 µM (inactive).

In the case of `CC(=O)C(C(=O)c1ccc(C)cc1)[C@@H]1OC(C)(C)O[C@@H]1[C@H]1COC(C)(C)O1` (stereo partly specified), the GI50 with SF-295 was 37.7 µM (inactive); in the assay with MDA-MB-435 it was 9.75 µM (inactive); in the assay on NCI-H460 it was 25.1 µM (inactive); in the assay with DU-145 it was 7.74 µM (inactive); with HL-60, 1.67 µM (inactive); with LOX IMVI, 6.43 µM (inactive). Moreover, the GI50 with SF-539 was 5.79 µM (inactive); with OVCAR-5, 40.9 µM (inactive); in the assay on MDA-MB-231 it was 10.5 µM (inactive); with SK-OV-3, 51.2 µM (inactive); with M14, 11.3 µM (inactive); in the assay on 786-0 it was 6.4 µM (inactive). Also, the GI50 with SW-620 is 3.55 µM (inactive); in the assay with HT-29, 5.21 µM (inactive); in the assay with HOP-92, 35.2 µM (inactive); in the assay on RXF 393, 9.62 µM (inactive); with NCI-H522, 4.89 µM (inactive); with BT-549, 15 µM (inactive). In addition, the GI50 in the assay with A498 was 36.9 µM (inactive).

As for `Cn1c2ccccc2c(=S)c2cc(NC(=O)CCCCC(=O)Nc3ccc4c(c3)c(=S)c3ccccc3n4C)ccc21`, the GI50 with NCI-H226, in the assay on SF-295, in the assay with MDA-MB-435, in the assay with NCI-H460, with DU-145 and with LOX IMVI was > 100 µM (inactive) in each case. Besides, the GI50 with SF-539 was > 100 µM (inactive); in the assay with OVCAR-5, > 100 µM (inactive); with MDA-MB-231, 65.9 µM (inactive); in the assay with SK-OV-3, > 100 µM (inactive); with M14 it was > 100 µM (inactive); with 786-0, 72.1 µM (inactive). For the same molecule, the GI50 with SW-620, in the assay with HT-29, in the assay on HOP-92, in the assay on RXF 393, with NCI-H522 and with BT-549 was > 100 µM (inactive) throughout. Besides, the GI50 in the assay with A498 is > 100 µM (inactive).

Regarding `CCOP(=O)(OCC)/C(C#N)=C/c1cccn1C(C)C`, the GI50 with NCI-H226, with SF-295, in the assay with MDA-MB-435, in the assay with NCI-H460, in the assay with DU-145 and in the assay with LOX IMVI was > 100 µM (inactive) each time. Moreover, the GI50 in the assay on SF-539, in the assay with OVCAR-5, in the assay with MDA-MB-231, in the assay with SK-OV-3, with M14 and with 786-0 was > 100 µM (inactive) each time. For the same molecule, the GI50 in the assay with SW-620, with HT-29, in the assay with HOP-92, in the assay with RXF 393, in the assay on NCI-H522 and with BT-549 was > 100 µM (inactive) throughout. Besides, in the assay with A498, the GI50 is > 100 µM (inactive).

For `COc1cc2cc(C(=O)N3CC(CCl)c4c3cc([N+](=O)[O-])c3ccccc43)[nH]c2c(OC)c1OC` (stereo unspecified), the GI50 in the assay with NCI-H226 was > 100 µM (inactive); with SF-295, 14.7 µM (inactive); with MDA-MB-435 it was > 100 µM (inactive); with NCI-H460, 4.68 µM (inactive); with DU-145, 12.5 µM (inactive); with LOX IMVI, 49.9 µM (inactive). Also, the GI50 in the assay with SF-539 is 25.8 µM (inactive); with OVCAR-5 it was 25.6 µM (inactive); in the assay on MDA-MB-231, > 100 µM (inactive); in the assay with SK-OV-3 it was > 48.5 µM (inactive); in the assay on M14 it was 46.6 µM (inactive); with 786-0 it was 29.3 µM (inactive). In addition, the GI50 with SW-620 is > 100 µM (inactive); in the assay with HT-29, 40.6 µM (inactive); in the assay with HOP-92, > 70.1 µM (inactive); in the assay on RXF 393, > 89.3 µM (inactive); in the assay on NCI-H522 it was 24.7 µM (inactive); with BT-549, > 100 µM (inactive). The GI50 with A498 is > 40.6 µM (inactive).

These data come from ChEMBL document CHEMBL1201862, “PubChem BioAssay data set” (2004).
